Test results as given in patent US6914045B2, “Glycopeptide antibiotics” (Wyeth Holdings Corporation, priority 2001, dated 2005).
Values after ≈ are worked out from the molar mass of the structure shown.

How the values were obtained:
Experiment in all cases: in vitro antibacterial evaluation, MIC by broth dilution
Type in all cases: cell-based
Staphylococcus sp. = settings: broth dilution, 18 hours at 35° C.; for MIC Staphylococcus aureus (ATCC 29213): strain ATCC 29213; for MIC Staphylococcus aureus (GC 1131): strain GC 1131; for MIC Staphylococcus aureus (GC 3051): strain GC 3051; for MIC Staphylococcus aureus (GC 3053): strain GC 3053; for MIC Staphylococcus aureus (GC 4541): strain GC 4541; for MIC Staphylococcus aureus (GC 4542): strain GC 4542; for MIC Staphylococcus aureus-SMITH (GC 4543): strain GC 4543; for MIC Staphylococcus aureus (GC 4544): strain GC 4544; for MIC Staphylococcus aureus (GC 4545): strain GC 4545; for MIC Staphylococcus haemolyticus (GC 4546): strain GC 4546; for MIC Coagulase Negative Staphylococcus (GC 4547): strain GC 4547; for MIC Coagulase Negative Staphylococcus (GC 4548): strain GC 4548; for MIC Coagulase Negative Staphylococcus (GC 4549): strain GC 4549; for MIC Coagulase Negative Staphylococcus (GC 4551): strain GC 4551; for MIC Coagulase Negative Staphylococcus (GC 6257): strain GC 6257
Outline: (§1)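 Test organisms, which included recent clinical isolates resistant to methicillin, penicillin and/or vancomycin, were inoculated at 5×10^5 CFU/mL into Muller-Hinton II […] containing antibiotic at 64-0.06 μg/mL. Minimum inhibitory concentrations were then read as the lowest level inhibiting growth.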

Enterococcus sp. = settings: broth dilution, 18 hours at 35° C.
Outline: as §1

Streptococcus sp. = settings: broth dilution, 18 hours at 35° C.
Outline: as §1

Escherichia coli = settings: 18 hours at 35° C.
Outline: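 MIC is the lowest antibiotic concentration (tested 64-0.06 μg/mL) preventing growth of a 5×10^5 CFU/mL inoculum. Determined by broth dilution in Mueller-Hinton II medium following NCCLS standard M7-A2.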

## CC(c1ccccc1)C1NC(=O)CNC(=O)C(CO)NC(=O)C(C(O)C2CNC(=N)N2C2OC(CO)C(O)C(O)C2O)NC(=O)C(C(O)C2CNC(=N)N2)NC(=O)C(Cc2ccc3oc(-c4ccc(OCc5ccccc5)cc4)nc3c2)NC1=O (stereo not drawn) [Example 31, Cyclo[3-[2-[4-(phenylmethoxy)phenyl]-1,3-benzoxazol-5-yl]alanyl-3-(2-iminoimidazolidin-4-yl)seryl-3-(3-hexopyranosyl-2-iminoimidazolidin-4-yl)serylserylglycyl-β-methyl-phenylalanyl]]
Staphylococcus sp.
  MIC Staphylococcus aureus (ATCC 29213): 16 µg/mL (≈ 13.6 µM)
  MIC Staphylococcus aureus (GC 1131): 16 µg/mL (≈ 13.6 µM)
  MIC Staphylococcus aureus (GC 3051): 16 µg/mL (≈ 13.6 µM)
  MIC Staphylococcus aureus (GC 3053): 16 µg/mL (≈ 13.6 µM)
  MIC Staphylococcus aureus (GC 4541): 16 µg/mL (≈ 13.6 µM)
  MIC Staphylococcus aureus (GC 4542): 8 µg/mL (≈ 6.79 µM)
  MIC Staphylococcus aureus-SMITH (GC 4543): 16 µg/mL (≈ 13.6 µM)
  MIC Staphylococcus aureus (GC 4544): 16 µg/mL (≈ 13.6 µM)
  MIC Staphylococcus aureus (GC 4545): 16 µg/mL (≈ 13.6 µM)
  MIC Staphylococcus haemolyticus (GC 4546): 8 µg/mL (≈ 6.79 µM)
  MIC Coagulase Negative Staphylococcus (GC 4547): 8 µg/mL (≈ 6.79 µM)
  MIC Coagulase Negative Staphylococcus (GC 4548): 8 µg/mL (≈ 6.79 µM)
  MIC Coagulase Negative Staphylococcus (GC 4549): 16 µg/mL (≈ 13.6 µM)
  MIC Coagulase Negative Staphylococcus (GC 4551): 16 µg/mL (≈ 13.6 µM)
  MIC Coagulase Negative Staphylococcus (GC 6257): 4 µg/mL (≈ 3.39 µM)
Enterococcus sp.; strain ATCC 29212
  MIC Enterococcus faecalis (ATCC 29212): 64 µg/mL (≈ 54.3 µM)
Enterococcus sp.; strain GC 2242
  MIC Enterococcus faecalis (GC 2242): 64 µg/mL (≈ 54.3 µM)
Enterococcus sp.; strain GC 2243
  MIC Enterococcus faecium (GC 2243): 32 µg/mL (≈ 27.2 µM)
Enterococcus sp.; strain GC 2691
  MIC Enterococcus faecalis (GC 2691): 64 µg/mL (≈ 54.3 µM)
Enterococcus sp.; strain GC 3059
  MIC Enterococcus faecalis (GC 3059): 128 µg/mL (≈ 109 µM)
Enterococcus sp.; strain GC 4552
  MIC Enterococcus faecalis (GC 4552): 128 µg/mL (≈ 109 µM)
Enterococcus sp.; strain GC 4553
  MIC Enterococcus faecalis (GC 4553): 16 µg/mL (≈ 13.6 µM)
Enterococcus sp.; strain GC 4554
  MIC Enterococcus faecalis (GC 4554): 128 µg/mL (≈ 109 µM)
Enterococcus sp.; strain GC 4556
  MIC Enterococcus faecium (GC 4556): 4 µg/mL (≈ 3.39 µM)
Enterococcus sp.; strain GC 4557
  MIC Enterococcus faecium (GC 4557): 4 µg/mL (≈ 3.39 µM)
Enterococcus sp.; strain GC 4558
  MIC Enterococcus avium (GC 4558): 8 µg/mL (≈ 6.79 µM)
Enterococcus sp.; strain GC 6189
  MIC Enterococcus faecalis (GC 6189): 64 µg/mL (≈ 54.3 µM)
Streptococcus sp.; strain ATCC 6301
  MIC Streptococcus pneumoniae (ATCC 6301): 16 µg/mL (≈ 13.6 µM)
Streptococcus sp.; strain GC 1894
  MIC Streptococcus pneumoniae (GC 1894): 32 µg/mL (≈ 27.2 µM)
Streptococcus sp.; strain GC 4563
  MIC Streptococcus pyogenes (GC 4563): 8 µg/mL (≈ 6.79 µM)
Streptococcus sp.; strain GC 4564
  MIC Streptococcus agalactiae (GC 4564): 32 µg/mL (≈ 27.2 µM)
Streptococcus sp.; strain GC 4565
  MIC Streptococcus pneumoniae (GC 4565): 64 µg/mL (≈ 54.3 µM)
Escherichia coli; strain ATCC 25922, broth dilution
  MIC Escherichia coli (ATCC 25922): >128 µg/mL
Escherichia coli; strain GC 4559, broth dilution
  MIC Escherichia coli (GC 4559): >128 µg/mL
Escherichia coli; strain GC 4560, broth dilution
  MIC Escherichia coli (GC 4560): 32 µg/mL (≈ 27.2 µM)

## CC(C)CC(=O)OC1C(O)C(OC2C(CO)OC(Oc3ccc(CC4NC(=O)C(C(C)c5ccccc5)NC(=O)CNC(=O)C(CO)NC(=O)C(C(O)C5CNC(=N)N5C5OC(CO)C(O)C(O)C5O)NC(=O)C(C(O)C5CNC(=N)N5)NC4=O)cc3)C(O)C2O)OC2COC3(OC21)C1CC2CC(C1)CC3C2 (stereo not drawn) [Example 218]
Staphylococcus sp.
  MIC Staphylococcus aureus (ATCC 29213): 4 µg/mL (≈ 2.65 µM)
  MIC Staphylococcus aureus (GC 1131): 4 µg/mL (≈ 2.65 µM)
  MIC Staphylococcus aureus (GC 3051): 4 µg/mL (≈ 2.65 µM)
  MIC Staphylococcus aureus (GC 3053): 4 µg/mL (≈ 2.65 µM)
  MIC Staphylococcus aureus (GC 4541): 4 µg/mL (≈ 2.65 µM)
  MIC Staphylococcus aureus (GC 4542): 4 µg/mL (≈ 2.65 µM)
  MIC Staphylococcus aureus-SMITH (GC 4543): 4 µg/mL (≈ 2.65 µM)
  MIC Staphylococcus aureus (GC 4544): 4 µg/mL (≈ 2.65 µM)
  MIC Staphylococcus aureus (GC 4545): 4 µg/mL (≈ 2.65 µM)
  MIC Staphylococcus haemolyticus (GC 4546): 4 µg/mL (≈ 2.65 µM)
  MIC Coagulase Negative Staphylococcus (GC 4547): 4 µg/mL (≈ 2.65 µM)
  MIC Coagulase Negative Staphylococcus (GC 4548): 4 µg/mL (≈ 2.65 µM)
  MIC Coagulase Negative Staphylococcus (GC 4549): 4 µg/mL (≈ 2.65 µM)
  MIC Coagulase Negative Staphylococcus (GC 4551): 8 µg/mL (≈ 5.29 µM)
  MIC Coagulase Negative Staphylococcus (GC 6257): 4 µg/mL (≈ 2.65 µM)
Enterococcus sp.
  MIC Enterococcus avium (GC 4558): 4 µg/mL (≈ 2.65 µM)
  MIC Enterococcus faecalis (ATCC 29212): 4 µg/mL (≈ 2.65 µM)
  MIC Enterococcus faecalis (GC 2242): 4 µg/mL (≈ 2.65 µM)
  MIC Enterococcus faecalis (GC 2691): 4 µg/mL (≈ 2.65 µM)
  MIC Enterococcus faecalis (GC 3059): 4 µg/mL (≈ 2.65 µM)
  MIC Enterococcus faecalis (GC 4552): 4 µg/mL (≈ 2.65 µM)
  MIC Enterococcus faecalis (GC 4553): 4 µg/mL (≈ 2.65 µM)
  MIC Enterococcus faecalis (GC 4554): 4 µg/mL (≈ 2.65 µM)
  MIC Enterococcus faecalis (GC 6189): 4 µg/mL (≈ 2.65 µM)
  MIC Enterococcus faecium (GC 2243): 4 µg/mL (≈ 2.65 µM)
  MIC Enterococcus faecium (GC 4556): 4 µg/mL (≈ 2.65 µM)
  MIC Enterococcus faecium (GC 4557): 4 µg/mL (≈ 2.65 µM)
Enterococcus sp.; inoculum 5×10^5 CFU/mL, strain ATCC 29212
  MIC Enterococcus faecalis (ATCC 29212): 4 µg/mL (≈ 2.65 µM)
Enterococcus sp.; inoculum 5×10^5 CFU/mL, strain GC 2242
  MIC Enterococcus faecalis (GC 2242): 4 µg/mL (≈ 2.65 µM)
Enterococcus sp.; inoculum 5×10^5 CFU/mL, strain GC 2243
  MIC Enterococcus faecium (GC 2243): 4 µg/mL (≈ 2.65 µM)
Enterococcus sp.; inoculum 5×10^5 CFU/mL, strain GC 2691
  MIC Enterococcus faecalis (GC 2691): 4 µg/mL (≈ 2.65 µM)
Enterococcus sp.; inoculum 5×10^5 CFU/mL, strain GC 3059
  MIC Enterococcus faecalis (GC 3059): 4 µg/mL (≈ 2.65 µM)
Enterococcus sp.; inoculum 5×10^5 CFU/mL, strain GC 4552
  MIC Enterococcus faecalis (GC 4552): 4 µg/mL (≈ 2.65 µM)
Enterococcus sp.; inoculum 5×10^5 CFU/mL, strain GC 4553
  MIC Enterococcus faecalis (GC 4553): 4 µg/mL (≈ 2.65 µM)
Enterococcus sp.; inoculum 5×10^5 CFU/mL, strain GC 4554
  MIC Enterococcus faecalis (GC 4554): 4 µg/mL (≈ 2.65 µM)
Enterococcus sp.; inoculum 5×10^5 CFU/mL, strain GC 4556
  MIC Enterococcus faecium (GC 4556): 4 µg/mL (≈ 2.65 µM)
Enterococcus sp.; inoculum 5×10^5 CFU/mL, strain GC 4557
  MIC Enterococcus faecium (GC 4557): 4 µg/mL (≈ 2.65 µM)
Enterococcus sp.; inoculum 5×10^5 CFU/mL, strain GC 4558
  MIC Enterococcus avium (GC 4558): 4 µg/mL (≈ 2.65 µM)
Enterococcus sp.; inoculum 5×10^5 CFU/mL, strain GC 6189
  MIC Enterococcus faecalis (GC 6189): 4 µg/mL (≈ 2.65 µM)
Streptococcus sp.
  MIC Streptococcus agalactiae (GC 4564): 0.25 µg/mL (≈ 0.165 µM)
  MIC Streptococcus pneumoniae (ATCC 6301): 0.12 µg/mL (≈ 0.0794 µM)
  MIC Streptococcus pneumoniae (GC 1894): <0.06 µg/mL
  MIC Streptococcus pneumoniae (GC 4565): 0.12 µg/mL (≈ 0.0794 µM)
  MIC Streptococcus pyogenes (GC 4563): 0.5 µg/mL (≈ 0.331 µM)
Streptococcus sp.; inoculum 5×10^5 CFU/mL, strain ATCC 6301
  MIC Streptococcus pneumoniae (ATCC 6301): 0.12 µg/mL (≈ 0.0794 µM)
Streptococcus sp.; inoculum 5×10^5 CFU/mL, strain GC 1894
  MIC Streptococcus pneumoniae (GC 1894): <0.06 µg/mL
Streptococcus sp.; inoculum 5×10^5 CFU/mL, strain GC 4563
  MIC Streptococcus pyogenes (GC 4563): 0.5 µg/mL (≈ 0.331 µM)
Streptococcus sp.; inoculum 5×10^5 CFU/mL, strain GC 4564
  MIC Streptococcus agalactiae (GC 4564): 0.25 µg/mL (≈ 0.165 µM)
Streptococcus sp.; inoculum 5×10^5 CFU/mL, strain GC 4565
  MIC Streptococcus pneumoniae (GC 4565): 0.12 µg/mL (≈ 0.0794 µM)
Escherichia coli
  MIC Escherichia coli (ATCC 25922): 64 µg/mL (≈ 42.3 µM)
  MIC Escherichia coli (GC 4559): >64 µg/mL
  MIC Escherichia coli (GC 4560): 8 µg/mL (≈ 5.29 µM)
